From article PMC8456958, “Selective Bacterial Targeting and Infection‐Triggered Release of Antibiotic Colistin Conjugates” (Angewandte Chemie (International Ed. in English), 2021)

Key:
[1] = system: human neutrophil granulocytes (PMN); test: Activation of human neutrophil granulocytes (CD66b, flow cytometry); type: cell-based; details: 0.1 μM fMLP, 1 h at 37 °C with shaking, FITC-labeled anti CD66b antibody; three independent experiments
Protocol: HPLC-MS measurements were carried out in triplicate. Data from MRM measurements were analyzed with Skyline (vers. 18.3, MacCoss Laboratory, University of Washington).
Isolation of Neutrophil Granulocytes from human blood
The MACSxpress Neutrophil Isolation Kit, human from Miltenyi Biotec (Bergisch-Gladbach, Germany) was employed. Fresh venous EDTA blood was processed within 1 h. 65 mg of the MACSxpress whole blood isolation cocktail (lyophilized powder) were mixed with 1 ml of buffer A (from the kit). Then 1 ml of buffer B (from the kit) was added, and the well-mixed cocktail was added to 4 ml of peripheral whole blood in a 15 ml tube. The mixture was gently inverted 3 times and mixed on a tube rotator at 50 rpm for 5 min at rt. The tube was placed, without cap, for 20 min into a strong magnetic field (neodymium magnets). The suspension containing the PMN was collected into a fresh 15 ml tube by careful pipetting. […]
All steps were carried out with cooled media (4 °C) and the vials were kept on ice. Freshly isolated neutrophil granulocytes in RPMI 1640 were counted, followed by centrifugation at 200 x g for 10 min at 4 °C. […]
50 µl of the diluted detection antibody (diluted with Reagent Diluent) with a final concentration of 250 ng/ml were added and incubated for 1.5 h at 37 °C. […] The absorbance was measured at 450 nm […]

[2] = system: neutrophil granulocytes (PMN); test: Release of neutrophil elastase from neutrophil granulocytes (ELISA); type: cell-based, human; details: stimulation with 0.1 μM fMLP
Protocol: Figure 5 Cellular proof of concept for triggered antibiotic release from 6. a) Release of neutrophil elastase (NE) from neutrophil granulocytes. PMN were isolated and suspended in RPMI 1640. For activation, 0.1 μM fMLP was added. The samples were incubated for 1 h at 37 °C, centrifuged to remove cells, and the NE concentration was determined in the supernatant by ELISA. Values normalized to 1×10^6 cells mL^−1. Data are presented as the mean of 4 separate experiments. *p<0.03 compared to unactivated. b) Activity of NE after co‐cultivation of PMN with E. coli K12 in presence of 1 or 6. 5×10^5 cells mL^−1 of PMN were co‐cultivated with 8×10^6 cells mL^−1 of E. coli K12 (ratio of bacteria : PMN 16:1) for 1 h at 37 °C in RPMI 1640/HEPES‐NaCl 1:1. Data are presented as the mean of two separate experiments. c) Release of colistin from 6. […] After 1 h colistin concentrations were determined by HPLC–MS. […]
50 µl of the diluted detection antibody (diluted with Reagent Diluent) with a final concentration of 250 ng/ml were added and incubated for 1.5 h at 37 °C. […] The absorbance was measured at 450 nm together with a correction wavelength of 570 nm, the value of which was subtracted.
Calculation of results: All samples and standards were measured in duplicate. […]

Substance: N-Formyl-Met-Leu-Phe [fMLP, formyl‐methionyl‐leucyl‐phenylalanine]
- increase of the activation state marker CD66b [1]: 2.5 fold
- amount of elastase released by neutrophil granulocytes ([2]; RPMI 1640, 1 h, 37 °C, supernatant, ELISA, normalized to 1×10^6 cells mL^−1, mean of 4 experiments, basal 39): 84 ng/mL
- amount of elastase released, as activity ([2]; converted from ELISA amount, basal 2.5): 5.5 mU mL^−1
